# Columns and labels:
# [1] = Solubilization experiments, general procedure 1 (active ingredient content by UV spectroscopy or HPLC); settings: pH 7, aqueous buffer, thermodynamic from solid
# Description: Approximately 2 g of polymer were weighed out into a 50 mL glass beaker. Then 0.2 g of each active ingredient was weighed into the batch to give a supersaturated solution. […] The mixture was then stirred at room temperature for 72 hours, using a magnetic stirrer. After a rest time of one hour, unsolubilized active ingredient was removed by filtration. The resulting clear or opaque solution was then analyzed for its active ingredient content by means of UV spectroscopy or HPLC.
# [2] = Description: Approximately 100 mg of polymer were weighed out into a 50 mL glass beaker and dissolved in 9.900 g of distilled water. Then 100 mg of each active ingredient was weighed into the batch to give a supersaturated solution. The mixture was then stirred at room temperature for 24 hours, using a magnetic stirrer. After a rest time of one hour, unsolubilized active ingredient was removed by centrifuging. The resulting clear or opaque solution was then analyzed for its active ingredient content by means of UV spectroscopy.
# The solubility was determined as described in procedure 2.
Solubility of Fipronil in the presence of polymer [2],Compound,solubility at 72 h [1]
,NC(=O)N1c2ccccc2C=Cc2ccccc21 [Carbamazepine],140 µg/mL
,Clc1ccccc1C(c1ccccc1)(c1ccccc1)n1ccnc1 [Clotrimazole],< 100 µg/mL
,CN1C(C(=O)Nc2ccccn2)=C(O)c2ccccc2S1(=O)=O [Piroxicam],420 µg/mL
6 mg/L,polyethylene glycol monomethyl ether [PEG monomethyl ether],

# — US9426986B2, “Hyperbranched polycarbonates for solubilizing poorly soluble active substances” (BASF SE, priority 2009, dated 2016)
